Data from patent publication US7169818B2, “Lysophosphatidic acid receptor agonists and antagonists” (University of Virginia Patent Foundation, priority 2000, dated 2007).
Entries after “also recorded” stand apart in the source; their conditions may differ.

Key:
mouse LPA1 [1] = target: T1, mouse LPA1 (Mus musculus, UniProt P61793); experiment: GTP[γ35S] binding, LPA1-transfected HEK293T (or RH7777) cell membranes; type: biochemical; parameters: expressed in transfected cells; host or cells: HEK293T (transient); for part of the results RH7777 membranes; conditions: for antagonist activity at LPA1: block of LPA-induced GTP[γ35S] binding
T1 sequence (P61793 whole entry): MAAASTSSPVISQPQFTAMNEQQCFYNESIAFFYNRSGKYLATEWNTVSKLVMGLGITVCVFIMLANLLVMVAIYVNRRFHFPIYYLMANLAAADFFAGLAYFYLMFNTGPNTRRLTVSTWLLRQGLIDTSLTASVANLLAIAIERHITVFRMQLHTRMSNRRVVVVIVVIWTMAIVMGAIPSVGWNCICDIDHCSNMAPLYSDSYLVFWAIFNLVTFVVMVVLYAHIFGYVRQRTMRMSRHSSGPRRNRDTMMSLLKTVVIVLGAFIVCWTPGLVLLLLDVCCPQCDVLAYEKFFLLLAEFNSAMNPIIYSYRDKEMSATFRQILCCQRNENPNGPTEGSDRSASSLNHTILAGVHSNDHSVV
Description: (§1) The appropriate receptor plasmid DNA (encoding mouse LPA1, human LPA2 or human LPA3) was mixed with equal amounts of expression plasmids (pcDNA3) encoding a mutated (C351F) rat Gi2a, cow β1, and γ2 proteins and these DNAs were used to transfect monolayers of HEK293T cells (where ‘T’ indicates expression of the SV-40 virus large T antigen) using the calcium phosphate precipitate method. After about 60 hours, cells were harvested, membranes were prepared, aliquoted and stored at −70° C. until use.
(§2) The GTP[35 γS] assay was performed as described by us previously. Membranes containing 5 ug of protein were incubated in 0.1 ml GTP-binding buffer (in mM: HEPES 50, NaCl 100, MgCl2 10, pH7.5) containing […], […], 0.1 nM GTP[35 γS] (1200 Ci/mmol), and indicated lipid(s) for 30 minutes at 30° C. Samples were analyzed for membrane-bound radionuclide using a Brandel Cell Harvester (Gaithersburg, Md.).
(§3) The X-intercept of the linear transformation is equal to the inverse log of the KI.
(§4) Membranes prepared from these cells are used to measure GTPγ[^35S] binding as a function of test compound concentration. The resulting dose-response curves provide relative potency (EC50) and efficacy (Emax) for the test compounds.

LPA receptors = experiment: whole cell assays of calcium mobilization or inhibition of cAMP accumulation, agonist activity; type: cell-based
Description: (§5) Assays for cAMP accumulation were conducted on populations of 5×10^5 cells stimulated with […] in the presence of the phosphodiesterase inhibitor isomethylbutylxanthine (IBMX) for 15 minutes at 30° C. cAMP was measured by automated radioimmunoassay.
A FLIPR™ (Molecular Devices, Inc.) was used to measure intracellular calcium in A431 and HEK293T cells. A431 cells were seeded (˜50,000 cells/well) in 96-well clear bottom black microplates (Corning Costar Corp., Cambridge, Mass.) and left overnight in CO2 incubator at 37° C. HEK293T cells were treated likewise, but seeded onto poly D-lysine coated microplates (Becton Dickinson, Franklin Lakes, N.J.). A431 cells were dye-loaded with 4 μM Fluo-3 AM ester (Molecular Probes Inc., Eugene, Oreg.) in a loading buffer (1×HBSS buffer, pH 7.4, containing 20 mM HEPES, 0.1% BSA, and 2.5 mM probenecid) for 1 hour at 37° C. Cells were then washed four times with the loading buffer and exposed in the FLIPR™ to sets of compounds. HEK293T cells were loaded with 2 μM Fluo-4 AM ester (Molecular Probes Inc., Eugene, Oreg.) in the same loading buffer without probenecid for 30 minutes and washed four times before being exposed to compounds in the FLIPR™. In all cases, each concentration of each compound was tested in at least quintuplicate.

human LPA2 = human LPA2 (Homo sapiens, UniProt Q9HBW0); experiment: GTP[γ35S] binding, LPA2-transfected HEK293T cell membranes; type: biochemical; parameters: expressed in transfected cells; host or cells: HEK293T (transient); conditions: for EC50: agonist activity, GTP[γ35S] binding, read-out: LP A2 EC50
Chain of human LPA2 (Q9HBW0 whole entry): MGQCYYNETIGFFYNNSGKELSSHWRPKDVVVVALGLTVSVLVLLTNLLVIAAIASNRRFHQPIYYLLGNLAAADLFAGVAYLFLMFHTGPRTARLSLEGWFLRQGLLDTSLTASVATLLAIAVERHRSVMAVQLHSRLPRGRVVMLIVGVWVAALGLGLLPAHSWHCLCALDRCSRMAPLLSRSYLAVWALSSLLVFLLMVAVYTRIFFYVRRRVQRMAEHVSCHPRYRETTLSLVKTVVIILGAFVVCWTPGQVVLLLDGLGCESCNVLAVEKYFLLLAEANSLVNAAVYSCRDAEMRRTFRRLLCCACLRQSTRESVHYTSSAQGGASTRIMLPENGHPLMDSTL
Description: as §1, §2, §4

human LPA3 = target: T2, human LPA3 (Homo sapiens, UniProt Q9UBY5); experiment: GTP[γ35S] binding, LPA3-transfected HEK293T cell membranes; type: biochemical; parameters: expressed in transfected cells; host or cells: HEK293T (transient); conditions: for EC50: agonist activity, GTP[γ35S] binding, read-out: LP A3 EC50; for LP A3 Emax: efficacy compared to LPA (LPA = 100)
T2 sequence (Q9UBY5 1-353): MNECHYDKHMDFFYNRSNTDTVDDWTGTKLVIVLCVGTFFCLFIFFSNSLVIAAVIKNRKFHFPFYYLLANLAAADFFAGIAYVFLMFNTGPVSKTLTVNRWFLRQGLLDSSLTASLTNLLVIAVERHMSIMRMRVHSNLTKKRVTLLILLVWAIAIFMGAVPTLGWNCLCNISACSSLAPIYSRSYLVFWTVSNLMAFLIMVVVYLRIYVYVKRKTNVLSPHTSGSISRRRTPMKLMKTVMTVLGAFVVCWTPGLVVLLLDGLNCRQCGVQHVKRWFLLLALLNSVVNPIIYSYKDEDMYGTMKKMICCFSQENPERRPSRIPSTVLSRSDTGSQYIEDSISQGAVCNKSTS
Description: as §1, §2, §3, §4

human LPA1 = target: T3, human LPA1 (Homo sapiens, UniProt Q92633); experiment: GTP[γ35S] binding, baculovirus-infected insect Sf9 cell membrane preparation; type: biochemical
T3 construct: expressed in transfected cells; host or cells: Sf9 insect cells, recombinant baculovirus
T3 sequence (Q92633 whole entry): as the sequence (P61793 whole entry) above, with A4I, S8I, Q22P, Y40H, V61I, D193E, H194N, V269I, N331S, N335T counted along it
Description: The same activity was determined with human LPA1 using a recombinant baculovirus-infected insect Sf9 cell membrane preparation.

[2] = tested on: renal injury following ischemia-reperfusion; experiment: renal ischemia-reperfusion model; type: in vivo, C57BL6 mice; conditions: 1 mg/kg/2 hr
Description: C57BL6 mice (20 gm, 8 wks of age) were used for all studies. The surgical protocol of renal IR has been previously described (Okusa et al., 1999. Am J. Physiol. (Renal Physiol.) 277: F404–412; Okusa, et al., 2000 Am. J. Physiol. (Renal Physiol.) 279; F809–F818, and Okusa et al., 2001 Kidney Int. 59:2114–2125). For the injury protocol, bilateral flank incisions were made under anesthesia with a regimen that consists of ketamine (100 mg/kg, ip.), xylazine (10 mg/kg, ip.) and acepromazine (1 mg/kg, im.). Renal pedicles were exposed and cross-clamped for 27–32 min. Kidneys were examined for immediate reperfusion following clamp removal. Wounds were closed and mice were returned to cages. […] The mice were sacrificed and the kidneys harvested at 1, 4, 8, 24, 48 hrs, 5 and 7 days. […] Mice were sacrificed following 24 hrs of reperfusion and plasma was obtained for BUN and creatinine.

mouse LPA1 [3] = target: T1, mouse LPA1; experiment: cAMP accumulation in RH7777 cells stably expressing LPA1; type: cell-based; parameters: expressed in transfected cells; conditions: RH7777 cells stably expressing LPA1
Description: as §5
Rat hepatoma RH7777 cell monolayers were transfected with the mLPAI plasmid DNA using the calcium phosphate precipitate method and clonal populations expressing the neomycin phosphotransferase gene were selected by addition of geneticin (G418) to the culture media. The RH7777 cells were grown in monolayers at 37° C. in a 5% CO02/95% air atmosphere in growth media consisting of: 90% MEM, 10% fetal bovine serum, 2 mM glutamine and 1 mM sodium pyruvate.
wls-b8L and the other phosphonates were also tested also for activity in three whole cell assays. […] Finally, the activity of wls-b8L in activating a chloride conductance in Xenopus laevis ooctyes was measured.

[4] = efficacy compared to LPA (LPA = 100)
[5] = block of LPA-induced GTP[γ35S] binding

Row | EC50 (human LPA2) [nM] | EC50 (human LPA3) [nM] | LP A3 Emax (human LPA3) | Molecule | agonist potency relative to LPA at LPA1 (mouse LPA1 [1]; GTP[γ35S] binding) | agonist activity in whole cell assays (LPA receptors) | antagonist activity at LPA1 (mouse LPA1 [1]) | also measured
1 | – | – | – | CCCCCCCC/C=C\CCCCCCCC(=O)N[C@H](C)COP(=O)(O)O [VPC12086] | more potent than 1-oleoyl LPA; also recorded: more potent and efficacious than LPA | – | – | –
2 | – | – | – | CCCCCCCC/C=C\CCCCCCCC(=O)N[C@H](CO)COP(=O)(O)O [VPC31143] | more potent than 1-oleoyl LPA | – | – | –
3 | – | – | – | CCCCCCCC/C=C\CCCCCCCC(=O)N[C@@H](COP(=O)(O)O)Cc1ccccc1 [VPC12084] | – | appreciable agonist activity | did block LPA activity | –
4 | 4280 | 4980 | 89.3 | CCCCCCCC/C=C\CCCCCCCC(=O)N[C@@H](CC)COP(=O)(O)O [VPC12115] | – | – | – | LP A2 Emax (human LPA2; [4]): 85.6; EC50 (mouse LPA1 [1]; agonist activity, GTP[γ35S] binding, read-out: LP A1 EC50): 1580 nM; LP A1 Emax (mouse LPA1 [1]; [4]): 62.3
5 | – | – | – | CCCCCCCC/C=C\CCCCCCCC(=O)N[C@H](COP(=O)(O)O)Cc1ccc(OCc2ccccc2)cc1 [VPC12249] | – | completely devoid of agonist activity | surmountable antagonist | antagonist activity at human LPA1 (human LPA1): same activity; tissue preservation, H and E sections [2]: marked degree of tissue preservation; block of the inhibition of forskolin-induced increases in cAMP levels (mouse LPA1 [3]): inhibited; antagonist activity at LPA2 (human LPA2; [5]): lack of antagonist activity; antagonist activity at LPA3 (human LPA3; [5]): surmountable antagonist
6 | 6.8 | 262 | 100 | 1-acyl, 2-hydroxyl-sn-glycerol-3-phosphate [LPA, reference compound] | – | – | – | –
